Reference: patent US9096615B2, “Bridged bicyclic amino thiazine dioxide compounds as inhibitors of beta-secretase and methods of use thereof” (AMGEN INC., priority 2013, dated 2015)
Like-named read-outs stand apart in the source and are kept apart here.

Experiments:
BACE1 = BACE1 (Homo sapiens, UniProt P56817); experiment: In vitro enzymatic BACE FRET assay; assay type: biochemical; conditions: read-out: BACE1 FRET assay IC50
Experimental: In Vitro Enzymatic BACE FRET (Fluorescence Resonance Energy Transfer) Assay
Enzyme Assay Data in the Example Table I
The assay buffer used in this screen is 0.05 M acetate, pH 4.2, 10% DMSO final, 100 uM genapol (which is a nonionic detergent, below its Critical Micelle Concentration). The Beta Secretase enzyme (0.2 nM) is pre-incubated for one hour with inhibitors, typically in about 1 uL of DMSO according to a serial dilution, are added thereto. This assay is effectively started by the addition of FRET substrate (50 nM) and the combination is incubated for one hour. The FRET assay is terminated with by addition of Tris buffer, which raises the pH to neutrality, and the fluorescence is determined. The FRET substrate is a peptide with commercially available fluorophore and quencher, on opposite sides of the BACE cleavage site. Proteolytic cleavage of the FRET substrate releases quenching of fluorescence (excitation 488 nm and […]).

[1] = tested on: Aβ40 in conditioned medium of cells stably expressing Amyloid Precursor Protein (APP); experiment: In vitro BACE cell-based assay (HEK cell assay, Aβ40 sandwich ELISA); conditions: Homo sapiens, HEK293; Aβ40, 24 h incubation; read-out: HEK cell assay IC50
Experimental: In Vitro BACE Cell-Based Assay
The cell-based assay measures inhibition or reduction of Aβ40 in conditioned medium of test compound treated cells expressing amyloid precursor protein.
Cells stably expressing Amyloid Precursor Protein (APP) were plated at a density of 40K cells/well in 96 well plates (Costar). The cells were cultivated for 24 hours at 37° C. and 5% CO2 in DMEM supplemented with 10% FBS. The test compounds were then added to cells in 10-point dose response concentrations with the starting concentration being either 100 μM or 10 μM. The compounds were diluted from stock solutions in DMSO and the final DMSO concentration of the test compounds on cells was 0.1%. After 24 h of incubation with the test compounds the supernatant conditioned media was collected and the Aβ 40 levels were determined using a sandwich ELISA. The IC50 of the compound was calculated from the percent of control or percent inhibition of Aβ 40 as a function of the concentration of the test compound.
The sandwich ELISA to detect Aβ 40 was performed in 96 well microtiter plates, which were pre-treated with goat anti-rabbit IgG (Pierce). The capture and detecting antibody pair that were used to detect Aβ 40 from cell supernatants were affinity purified pAb40 (Biosource) and biotinylated 6E10 (Signet Labs Inc.), respectively. The optimal concentration for the pAb40 antibody was 3 μg/ml in Superblock/TBS (Pierce) that was supplemented with 0.05% Tween 20 (Sigma). Optimal concentration for the detection antibody 6E10-biotinylated was 0.5 μg/ml in Superblock/TBS (Pierce) that had been supplemented with 2% normal goat serum and 2% normal mouse serum.
Cellular supernatants were incubated with the capture antibody for 3 h at 4° C., followed by 3 wash steps in TBS-tween (0.05%). The detecting antibody incubation was for 2 h at 4° C., again followed by the wash steps as described previously. The final readout of the ELISA is Time-Resolved Fluorescence (counts per minute) using Delfia reagents Streptavidin-Europium and Enhancement solutions (Perkin Elmer) and the Victor 2 multilabel counter (Perkin Elmer).

Cathepsin D (Cat D) = molecular target: T1, Cathepsin D (Cat D) (Homo sapiens, UniProt P07339); experiment: In vitro enzymatic Cathepsin D (Cat D) FRET assay; assay type: biochemical
T1 construct: made in house; host or cells: CHO cells
Experimental: In Vitro Enzymatic Cathepsin D (Cat D) FRET (Fluorescence Resonance Energy Transfer) Assay
Recombinant Cat D was expressed in CHO cells. The assay buffer for CathepsinD is 0.05 M citrate pH 3.5, 10% DMSO final, 5 mM CHAPS. The Cat D enzyme (9 nM) is pre-incubated for one hour with inhibitors, typically in about 1 uL of DMSO according to a serial dilution, is added thereto. The assays are effectively started by the addition of different FRET substrates (20 nM for Cat D) and the combination is incubated for one hour. The FRET assay is terminated with by addition of Tris buffer, which raises the pH to neutrality, and the fluorescence is determined. The FRET substrate is a peptide with commercially available fluorophore and quencher, on opposite sides of the BACE cleavage site. The Cat D substrate peptide sequence is based on sequence #1 of Table 1 from Gulnik et al. FEBS Letters v413 p 379-384 1997. Proteolytic cleavage of the FRET substrate releases quenching of fluorescence (Cat D excitation 500 nm and emission 580 nm). […]
Where available, the in-vitro Cat D FRET assay data for each of the Examples, conducted by the first procedure, is provided in Tables 1 and 3. For example, the compound of example 28 has a Cat D IC50 value of >400 uM.

T1 sequence (P07339 65-412, species assumed): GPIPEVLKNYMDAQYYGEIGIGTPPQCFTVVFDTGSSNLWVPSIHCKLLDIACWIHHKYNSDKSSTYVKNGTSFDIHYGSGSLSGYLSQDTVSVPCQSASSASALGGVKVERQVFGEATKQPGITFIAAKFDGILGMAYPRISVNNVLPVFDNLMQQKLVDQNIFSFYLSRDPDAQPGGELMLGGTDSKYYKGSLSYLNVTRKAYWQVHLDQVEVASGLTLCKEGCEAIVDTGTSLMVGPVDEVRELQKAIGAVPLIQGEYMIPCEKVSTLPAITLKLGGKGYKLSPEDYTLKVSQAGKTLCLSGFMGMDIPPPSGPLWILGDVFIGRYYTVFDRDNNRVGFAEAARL
Sequence of BACE1 (P56817 46-501, species assumed): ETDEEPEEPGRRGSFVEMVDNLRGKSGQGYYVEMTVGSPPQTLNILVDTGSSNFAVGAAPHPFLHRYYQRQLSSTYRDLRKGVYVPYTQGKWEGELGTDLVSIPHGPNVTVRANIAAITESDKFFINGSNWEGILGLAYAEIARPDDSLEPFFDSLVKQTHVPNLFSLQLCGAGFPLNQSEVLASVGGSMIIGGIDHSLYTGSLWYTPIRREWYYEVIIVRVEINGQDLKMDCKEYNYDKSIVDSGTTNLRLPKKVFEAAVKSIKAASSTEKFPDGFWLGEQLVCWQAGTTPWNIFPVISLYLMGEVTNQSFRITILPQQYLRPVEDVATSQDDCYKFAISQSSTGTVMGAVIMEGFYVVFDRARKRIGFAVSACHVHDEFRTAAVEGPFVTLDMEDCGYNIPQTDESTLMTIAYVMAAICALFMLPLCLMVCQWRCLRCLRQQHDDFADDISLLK

IC50 (BACE1) [µM] | IC50 [1] [µM] | IC50 (Cathepsin D (Cat D); read-out: CatD IC50) [µM] | IC50 (Cathepsin D (Cat D); read-out: Cat D IC50 value) [µM] | Compound
0.015 | 0.064 | 2780 | – | Cc1cc(Cl)cnc1C(=O)Nc1ccc(F)c([C@@]2(C)N=C(N)[C@@H]3CCC[C@H]2S3(=O)=O)c1 [Example 17, N-(3-((1R,2R,5S)-4-Amino-2-methyl-9,9-dioxido-9-thia-3-azabicyclo[3.3.1]non-3-en-2-yl)-4-fluorophenyl)-5-chloro-3-methylpicolinamide]
0.043 | 0.018 | 690 | – | Cc1cc(OC(F)F)cnc1C(=O)Nc1ccc(F)c([C@@]2(C)N=C(N)[C@@H]3CCC[C@H]2S3(=O)=O)c1 [Example 18, N-(3-((1R,2R,5S)-4-Amino-2-methyl-9,9-dioxido-9-thia-3-azabicyclo[3.3.1]non-3-en-2-yl)-4-fluorophenyl)-5-(difluoromethoxy)-3-methylpicolinamide]
0.003 | 0.006 | 717 | – | Cc1cc(Cl)cnc1C(=O)Nc1ccc(F)c([C@@]2(C)N=C(N)[C@H]3CCC[C@@H]2S3(=O)=O)c1 [Example 20, N-(3-((1S,2R,5R)-4-Amino-2-methyl-9,9-dioxido-9-thia-3-azabicyclo[3.3.1]non-3-en-2-yl)-4-fluorophenyl)-5-chloro-3-methylpicolinamide]
0.016 | 0.081 | 1640 | – | Cc1cc(Cl)cnc1C(=O)Nc1ccc(F)c([C@@]2(C)N=C(N)[C@@H]3CC[C@H]2S3(=O)=O)c1 [Example 21, N-(3-((1R,2R,5S)-4-Amino-2-methyl-8,8-dioxido-8-thia-3-azabicyclo[3.2.1]oct-3-en-2-yl)-4-fluorophenyl)-5-chloro-3-methylpicolinamide]
0.008 | 0.017 | 577 | – | Cc1cc(Cl)cnc1C(=O)Nc1ccc(F)c([C@@]2(C)N=C(N)[C@]3(C)CC[C@H]2S3(=O)=O)c1 [Example 26, N-(3-((1R,2R,5S)-4-Amino-2,5-dimethyl-8,8-dioxido-8-thia-3-azabicyclo[3.2.1]oct-3-en-2-yl)-4-fluorophenyl)-5-chloro-3-methylpicolinamide]
0.014 | 0.002 | 2040 | – | Cc1cc(C(F)(F)F)cnc1C(=O)Nc1ccc(F)c([C@@]2(C)N=C(N)[C@]3(C)CC[C@H]2S3(=O)=O)c1 [Example 27, N-(3-((1R,2R,5S)-4-Amino-2,5-dimethyl-8,8-dioxido-8-thia-3-azabicyclo[3.2.1]oct-3-en-2-yl)-4-fluorophenyl)-3-methyl-5-(trifluoromethyl)picolinamide]
0.004 | 0.012 | 56.9 | – | Cc1cc(Cl)cnc1C(=O)Nc1ccc(F)c([C@@]2(C)N=C(N)[C@@]3(C)CC[C@]2(C)S3(=O)=O)c1 [Example 31, N-(3-((1S,2R,5R)-4-amino-1,2,5-trimethyl-8,8-dioxido-8-thia-3-azabicyclo[3.2.1]oct-3-en-2-yl)-4-fluorophenyl)-5-chloro-3-methylpicolinamide]
0.007 | 0.017 | 131 | – | Cc1cc(Cl)cnc1C(=O)Nc1ccc(F)c([C@@]2(C)N=C(N)[C@]3(C)CC[C@@]2(C)S3(=O)=O)c1 [Example 32, N-(3-((1R,2R,5S)-4-amino-1,2,5-trimethyl-8,8-dioxido-8-thia-3-azabicyclo[3.2.1]oct-3-en-2-yl)-4-fluorophenyl)-5-chloro-3-methylpicolinamide]

Second part, the compound before the results:

Compound | IC50 (BACE1) [µM] | IC50 [1] [µM] | IC50 (Cathepsin D (Cat D); read-out: CatD IC50) [µM] | IC50 (Cathepsin D (Cat D); read-out: Cat D IC50 value) [µM]
Cc1cc(OC(F)F)cnc1C(=O)Nc1ccc(F)c([C@@]2(C)N=C(N)[C@]3(C)CCC[C@@]2(C)S3(=O)=O)c1 [Example 14, N-(3-((1R,2R,5S)-4-Amino-1,2,5-trimethyl-9,9-dioxido-9-thia-3-azabicyclo[3.3.1]non-3-en-2-yl)-4-fluorophenyl)-5-(difluoromethoxy)-3-methylpicolinamide] | 0.009 | 0.002 | 17.7 | –
COc1cnc(C(=O)Nc2ccc(F)c([C@@]3(C)N=C(N)[C@@]4(C)CCC[C@]3(C)S4(=O)=O)c2)cn1 [Example 15, N-(3-((1S,2R,5R)-4-Amino-1,2,5-trimethyl-9,9-dioxido-9-thia-3-azabicyclo[3.3.1]non-3-en-2-yl)-4-fluorophenyl)-5-methoxypyrazine-2-carboxamide] | 0.049 | 0.027 | 138 | –
COc1cnc(C(=O)Nc2ccc(F)c([C@@]3(C)N=C(N)[C@]4(C)CCC[C@@]3(C)S4(=O)=O)c2)cn1 [Example 16, N-(3-((1R,2R,5S)-4-Amino-1,2,5-trimethyl-9,9-dioxido-9-thia-3-azabicyclo[3.3.1]non-3-en-2-yl)-4-fluorophenyl)-5-methoxypyrazine-2-carboxamide] | 0.02 | 0.016 | 85.2 | –
Cc1cc(OC(F)F)cnc1C(=O)Nc1ccc(F)c([C@@]2(C)N=C(N)[C@@]3(C)CC[C@@H]2S3(=O)=O)c1 [Example 23, N-(3-((1S,2R,5R)-4-Amino-2,5-dimethyl-8,8-dioxido-8-thia-3-azabicyclo[3.2.1]oct-3-en-2-yl)-4-fluorophenyl)-5-(difluoromethoxy)-3-methylpicolinamide] | 0.002 | 0.001 | 117 | –
Cc1c(C(=O)Nc2ccc(F)c([C@@]3(C)N=C(N)[C@@]4(C)CC[C@@H]3S4(=O)=O)c2)nc2ccc(Cl)cn12 [Example 25, N-(3-((1S,2R,5R)-4-Amino-2,5-dimethyl-8,8-dioxido-8-thia-3-azabicyclo[3.2.1]oct-3-en-2-yl)-4-fluorophenyl)-6-chloro-3-methylimidazo[1,2-a]pyridine-2-carboxamide] | 0.021 | 0.004 | 318 | –
Cc1c(C(=O)Nc2ccc(F)c([C@@]3(C)N=C(N)[C@]4(C)CC[C@H]3S4(=O)=O)c2)nc2ccc(Cl)cn12 [Example 28, N-(3-((1R,2R,5S)-4-Amino-2,5-dimethyl-8,8-dioxido-8-thia-3-azabicyclo[3.2.1]oct-3-en-2-yl)-4-fluorophenyl)-6-chloro-3-methylimidazo[1,2-a]pyridine-2-carboxamide] | 0.07 | 0.01 | > 400 | > 400
C[C@]1(c2cc(Nc3ncc(F)c4cc(Cl)cnc34)ccc2F)N=C(N)[C@@]2(C)CC[C@@H]1S2(=O)=O [Example 29, (1R,4R,5S)-2-Amino-4-(5-((3-chloro-5-fluoro-1,7-naphthyridin-8-yl)amino)-2-fluorophenyl)-1,4-dimethyl-8-thia-3-azabicyclo[3.2.1]oct-2-ene 8,8-dioxide] | 0.001 | 0.052 | 733 | –
C[C@]12CC[C@H]([C@@](C)(c3cc(Nc4ncc(F)c5cc(Cl)cnc45)ccc3F)N=C1N)S2(=O)=O [Example 30, N-(3-((1R,2R,5S)-4-amino-2,5-dimethyl-8,8-dioxido-8-thia-3-azabicyclo[3.2.1]oct-3-en-2-yl)-4-fluorophenyl)-3-chloro-5-fluoro-1,7-naphthyridin-8-amine] | 0.033 | 0.163 | 4500 | –
